Results on 29 compounds are retold here after patent publication EP4772502A1, “ARYL OR HETEROARYL SUBSTITUTED CARBAMATE COMPOUND AND DERIVATIVE AND USE THEREOF” (Shenzhen Zhongge Biological Technology Co., Ltd., priority 2023, dated 2025).

Structures are written as SMILES. Some results are limits rather than exact numbers.

T1 sequence (Q13131 whole entry): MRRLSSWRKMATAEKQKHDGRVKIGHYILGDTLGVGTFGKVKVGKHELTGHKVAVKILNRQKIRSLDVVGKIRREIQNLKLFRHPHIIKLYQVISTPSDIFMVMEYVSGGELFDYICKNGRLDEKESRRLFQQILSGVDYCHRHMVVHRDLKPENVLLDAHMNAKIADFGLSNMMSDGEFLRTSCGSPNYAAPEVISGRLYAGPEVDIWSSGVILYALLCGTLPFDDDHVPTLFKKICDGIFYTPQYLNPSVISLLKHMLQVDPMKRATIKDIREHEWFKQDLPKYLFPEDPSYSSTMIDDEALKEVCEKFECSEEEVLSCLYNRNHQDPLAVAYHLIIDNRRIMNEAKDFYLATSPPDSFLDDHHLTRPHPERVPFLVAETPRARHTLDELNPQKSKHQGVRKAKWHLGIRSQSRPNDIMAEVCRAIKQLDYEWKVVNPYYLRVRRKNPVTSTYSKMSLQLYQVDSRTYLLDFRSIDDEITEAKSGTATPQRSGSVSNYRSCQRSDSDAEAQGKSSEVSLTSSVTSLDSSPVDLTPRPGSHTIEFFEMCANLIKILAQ
T1 sequence (Q9Y478 whole entry): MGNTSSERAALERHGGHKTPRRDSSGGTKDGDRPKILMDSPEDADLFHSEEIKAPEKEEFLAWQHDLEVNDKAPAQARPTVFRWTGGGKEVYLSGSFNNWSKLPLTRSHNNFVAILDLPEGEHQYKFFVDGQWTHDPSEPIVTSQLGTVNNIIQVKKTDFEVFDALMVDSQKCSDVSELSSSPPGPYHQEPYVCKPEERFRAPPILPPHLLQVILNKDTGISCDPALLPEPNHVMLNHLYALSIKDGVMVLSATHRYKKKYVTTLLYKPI
T1 sequence (P54619 whole entry partner): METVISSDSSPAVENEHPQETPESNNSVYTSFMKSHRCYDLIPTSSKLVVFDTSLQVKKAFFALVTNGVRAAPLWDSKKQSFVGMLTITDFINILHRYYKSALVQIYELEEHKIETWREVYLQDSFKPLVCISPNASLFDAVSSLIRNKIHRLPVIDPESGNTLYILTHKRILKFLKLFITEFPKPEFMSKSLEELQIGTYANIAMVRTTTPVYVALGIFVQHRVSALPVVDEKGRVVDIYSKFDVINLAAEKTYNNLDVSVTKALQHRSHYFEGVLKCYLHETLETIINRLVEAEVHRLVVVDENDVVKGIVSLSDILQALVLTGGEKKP

One assay has as its target T1, AMPKα1β1γ1 (Homo sapiens, UniProt Q13131+Q9Y478).
T1 construct: purchased CARNA 02-113
In words: In vitro assay for AMPK (α1β1γ1) enzyme agonist activity (TR-FRET). It is filed as biochemical. The settings on record: 1 h; activity of 1 µM A769662 set as 100%; read-out: Top value (%). Here is the method:
Test example 1: In vitro assay for AMPK (α1β1γ1) enzyme agonist activity
Test compounds were dissolved in DMSO to prepare 10 mM stock solution, which was then diluted to the predetermined test concentrations using kinase buffer (50 mM HEPES, 1 mM EDTA, 10 mM MgCl2, 0.01% Brij-35, pH = 7.5). Into a 384-well plate were added 5 µL of AMPKα1β1γ1 (CARNA, 02-113), 2.5 µL of the diluted test compound solution, and 2.5 µL of a mixture of […] and ATP, resulting in the following final concentrations: AMPKα1β1γ1 at 1.6 mg/L, […] at 5 nM, and ATP at 0.1 mM. The components were mixed evenly, and reacted at room temperature for 1 h. Subsequently, 5 µL of LANCE Detection Buffer (CR97-100, PerkinElmer) containing 40 mM EDTA was added. After standing for 5 min, 5 µL of 4× Eu-anti-phospho-CREB Antibody (TRF0200-M, PerkinElmer) was added, and the mixture was allowed to stand at room temperature for 1 h. The values of samples in each well were read using a microplate reader in TR-FRET mode (excitation wavelength: 320 nm; emission wavelengths: 665 nm and 615 nm). By comparing the values with those of the blank control group (1% DMSO) and the positive control group (1 µM A769662), the relative activity of AMPKα1β1γ1 at each test compound concentration (4.57 nM, 13.72 nM, 41.15 nM, 123.46 nM, 370.37 nM, 1111.11 nM, 3333.33 nM, and 10000 nM) was calculated, with the activity of 1 µM A769662 set as 100%. The data were analysed in GraphPad Prism 9 using a Dose-response-Stimulation four-parameter regression model to obtain the Top and EC50 values for the test compounds.
For orientation: TR-FRET usually uses a lanthanide donor and a delayed reading to cut background.
Take `O=C(Nc1cc(-c2ccc(C3(CO)CC3)cc2)cs1)O[C@@H]1CO[C@H]2[C@@H]1OC[C@H]2O` [compound 2]: the Emax is 150 to 200%.

Regarding `NCCCc1ccc(-c2sc(NC(=O)O[C@@H]3CO[C@H]4[C@@H]3OC[C@H]4O)cc2Cl)cc1` [Compound 32], the Emax was 100 to 150%.

Regarding `O=C(Nc1cc(Cl)c(-c2ccc(N3CCCC3)cc2)s1)O[C@@H]1CO[C@H]2[C@@H]1OC[C@H]2O` [compound 14], the Emax is 70 to 100%.

For the compound `Cn1ccc2cc(-c3sc(NC(=O)OCCCO)cc3Cl)ccc21` [compound 15], the Emax is 70 to 100%.

With `O=C(Nc1cc(-c2ccc(C3(CO)CC3)cc2)c(Cl)s1)O[C@@H]1CO[C@H]2[C@@H]1OC[C@H]2O` [compound 1], the Emax is 200 to 300%.

For the compound `COc1ccc(-c2sc(NC(=O)O[C@@H]3CO[C@H]4[C@@H]3OC[C@H]4O)cc2Cl)cc1` [compound 10], the Emax lay in the range of 200 to 300%.

Consider `O=C(Nc1cc(C2CC2)c(-c2ccc(C3(CO)CC3)cc2)s1)O[C@@H]1CO[C@H]2[C@@H]1OC[C@H]2O` [compound 22], for which the Emax lay in the range of 150 to 200%.

As for `Cc1cc(NC(=O)O[C@@H]2CO[C@H]3[C@@H]2OC[C@H]3O)sc1-c1ccc(C2(CO)CC2)cc1` [compound 8], the Emax is 200 to 300%.

Regarding `O=C(Nc1cc(Cl)c(C#Cc2ccccc2O)s1)O[C@@H]1CO[C@H]2[C@@H]1OC[C@H]2O` [compound 20], the Emax was not below 300%.

On to `O=C(Nc1cc(Cl)c(-c2ccc(-c3ccccc3O)cc2)s1)O[C@@H]1CO[C@H]2[C@@H]1OC[C@H]2O` [compound 6], for which the Emax lay in the range of 200 to 300%.

On to `O=C(Nc1csc(-c2ccc(C3(CO)CC3)cc2)c1)O[C@@H]1CO[C@H]2[C@@H]1OC[C@H]2O` [compound 13], for which the Emax lay in the range of 200 to 300%.

For `O=C(Nc1cc(Cl)c(-c2ccc(C3(CO)CC3)cc2)s1)O[C@H]1CC[C@H](CO)CC1` [Compound 39], the Emax lay within 100 to 150%.

In the case of `CS(=O)(=O)c1ccc(-c2ccc(-c3sc(NC(=O)O[C@@H]4CO[C@H]5[C@@H]4OC[C@H]5O)cc3Cl)cc2)cc1` [compound 19], the Emax fell in the range of 150 to 200%.

Turning to `O=C(Nc1cc(Cl)c(-c2ccc(N3CCOCC3)cc2)s1)O[C@@H]1CO[C@H]2[C@@H]1OC[C@H]2O` [compound 9], the Emax was in the range of 150 to 200%.

In the case of `O=C(Nc1cc(Cl)c(-c2ccc(C3(CO)CC3)cc2)s1)O[C@@H]1CO[C@H]2[C@@H]1OC[C@H]2O` [compound 3], the Emax is 200 to 300%.

For the compound `O=C(Nc1cc(Cl)c(-c2ccc(-c3ccccc3)cc2)s1)O[C@@H]1CO[C@H]2[C@@H]1OC[C@H]2O` [compound 4], the Emax lay within 150 to 200%.

As to `O=C(Nc1cc(Cl)c(-c2ccc3c(ccn3C3CC3)c2)s1)O[C@@H]1CO[C@H]2[C@@H]1OC[C@H]2O` [compound 18], the Emax lay in the range of 150 to 200%.

In the case of `O=C(Nc1cc(Cl)c(C#Cc2ccccc2)s1)O[C@@H]1CO[C@H]2[C@@H]1OC[C@H]2O` [compound 17], the Emax lay in the range of 200 to 300%.

On to `O=C(Nc1cc(Cl)c(-c2ccc(C3(O)CCC3)cc2)s1)O[C@@H]1CO[C@H]2[C@@H]1OC[C@H]2O` [compound 7], for which the Emax is 200 to 300%.

On to `CN1CCC(c2ccc(-c3sc(NC(=O)O[C@@H]4CO[C@H]5[C@@H]4OC[C@H]5O)cc3Cl)cc2)CC1` [compound 24], for which the Emax was in the range of 150 to 200%.

For the compound `O=C(Nc1cc(Cl)c(-c2ccc(C3(CO)CC3)cc2)s1)O[C@H]1CC[C@H](C(=O)O)CC1` [Compound 38], the Emax was in the range of 150 to 200%.

As to `CCc1cc(NC(=O)O[C@@H]2CO[C@H]3[C@@H]2OC[C@H]3O)sc1-c1ccc(C2(CO)CC2)cc1` [Compound 40], the Emax lay in the range of 100 to 150%.

As to `NCCCOc1ccc(-c2sc(NC(=O)O[C@@H]3CO[C@H]4[C@@H]3OC[C@H]4O)cc2Cl)cc1` [Compound 31], the Emax is 150 to 200%.

Turning to `O=C(Nc1cc(Cl)c(C#CC2(O)CCC2)s1)O[C@@H]1CO[C@H]2[C@@H]1OC[C@H]2O` [Compound 28], the Emax lay in the range of 70 to 100%.

Turning to `CCOC(=O)[C@H]1CC[C@H](OC(=O)Nc2cc(Cl)c(-c3ccc(C4(CO)CC4)cc3)s2)CC1` [Compound 37], the Emax fell in the range of 70 to 100%.

As for `Cn1ccc2cc(-c3sc(NC(=O)O[C@@H]4CO[C@H]5[C@@H]4OC[C@H]5O)cc3Cl)ccc21` [compound 5], the Emax lay in the range of 150 to 200%.

As to `O=C(Nc1cc(Cl)c(-c2ccc(-c3ccccc3O)cc2)s1)OCCCO` [Compound 42], the Emax lay in the range of 150 to 200%.

Take `O=C(Nc1cc(Cl)c(-c2ccc(OCCCN3CCOCC3)cc2)s1)O[C@@H]1CO[C@H]2[C@@H]1OC[C@H]2O` [compound 23]: the Emax was not below 300%.

For the next assay, the system named is AMPK.
Assay: not given
The settings on record: Tamura et al., Bioorganic & Medicinal Chemistry Letters, Vol. 68, 2022, 128769; cited from earlier work.
As to `O=C(Nc1ncc(-c2ccc(-c3ccccc3)cc2)s1)O[C@@H]1CO[C@H]2[C@@H]1OC[C@H]2O` [compound 11], the AMPK agonist activity entry is “no AMPK agonist activity”.
